The values below come from US7906506B2, “Substituted chiral fused [1,2] imidazo [4,5-c] ring compounds and methods” (3M Innovative Properties Company, priority 2006, dated 2011).

Structures are written as SMILES.

As for `CC1OC[C@H](C)n2c1nc1c(N)nc3ccccc3c12` (stereo partly drawn) [Example 1, (11S)-8,11-Dimethyl-10,11-dihydro-8H-[1,4]oxazino[4′,3′:1,2]imidazo[4,5-c]quinolin-6-amine], the melting point – broadly, the temperature, or range, at which the solid turns liquid – was in the range of 218 to 223 °C.

In turn, `CCCC1OC[C@H](C)n2c1nc1c(N)nc3ccccc3c12` (stereo partly drawn) [Example 2, (11S)-1-Methyl-8-propyl-10,11-dihydro-8H-[1,4]oxazino[4′,3′:1,2]imidazo[4,5-c]quinolin-6-amine] came in with a melting point of 243 to 268 °C.
